The values below come from patent US8357659B2, “Method of treating pain or itching with APETx2 peptide toxin” (priority 2008, dated 2013).

In assay [1] the test system is ASIC type current of cutaneous neurons of the spinal ganglia. Kind of assay: Whole cell patch clamp of native ASIC currents in cutaneous neurons of the spinal ganglia. The conditions noted are these: pH 6.6; FIG. 1C. It is filed as cell-based, rat. As to the method:
The neurons of the dorsal root ganglion (spinal ganglia or DRG) innervating the skin were labelled by subcutaneous injections of 5×1 μl of Dil fluorescent dye (5% DMSO, Molecular Probes) in the dorsal side of the rats' hind paws. The dye was injected two weeks before the rats were sacrificed in order to prepare a primary culture of dorsal root ganglion.
The lumbar dorsal root ganglia L3-L6 of Wistar rats (8-11 weeks) were dissected bilaterally and separated enzymatically with 0.1% collagenase. The cells were subsequently plated on 35 mm Petri dishes covered with collagen and cultured at 37° C. (95% air/5% CO2) in DMEM medium containing 5% of foetal calf serum. The electrophysiological experiments were performed 1 to 8 days after seeding.
The whole cell configuration of the patch clamp method was used ([ref. 48]) in order to measure the membrane currents (imposed voltage) or the membrane potentials (imposed current). The recordings were performed at ambient temperature using an RK-400 amplifier (Bio-Logic Science Instruments) with a 3 kHz low-pass filter (Krohn-Hite). The data were sampled at 10 kHz, digitised using a Digidata 1322A A-D/D-A converter (Axon Instruments) and recorded on a hard disk using pClamp software (version 9.2.0.11, Axon Instruments). The recording probes (1-4 MOhms) contained (in mM): 135 KCl, 2.5 Na2-ATP, 2 MgCl2, 2.1 CaCl2, 5 EGTA, 10 HEPES (pH 7.25 with KOH). Various different buffers and drugs of interest were added to the transfected cells considered individually using an internally developed microinfusion system controlled by microelectrovalves (Sirai, Italy) allowing rapid changes of solution. The control bath solution contained (in mM): 145 NaCl, 5 KCl, 2 MgCl2, 2 CaCl2, 10 HEPES (pH 7.4 with NaOH). The MES medium was used instead of the HEPES medium in order to buffer the solution at a pH ranging from 6 to 5, and the ASIC currents were induced by rapid changes of a control solution at pH 7.4 to an acid test solution using the microinfusion system. For the experiments conducted on the DRG neurons, glucose (10 mM) was added to the control bath solution. Hypertonic conditions were obtained by adding mannitol or sucrose to the external bath solutions, as indicated in the text.

The target in the next assay is T1, heteromer ASIC1a+3 (Rattus norvegicus, UniProt O35240+P55926).
T1 sequence (P55926 1-526): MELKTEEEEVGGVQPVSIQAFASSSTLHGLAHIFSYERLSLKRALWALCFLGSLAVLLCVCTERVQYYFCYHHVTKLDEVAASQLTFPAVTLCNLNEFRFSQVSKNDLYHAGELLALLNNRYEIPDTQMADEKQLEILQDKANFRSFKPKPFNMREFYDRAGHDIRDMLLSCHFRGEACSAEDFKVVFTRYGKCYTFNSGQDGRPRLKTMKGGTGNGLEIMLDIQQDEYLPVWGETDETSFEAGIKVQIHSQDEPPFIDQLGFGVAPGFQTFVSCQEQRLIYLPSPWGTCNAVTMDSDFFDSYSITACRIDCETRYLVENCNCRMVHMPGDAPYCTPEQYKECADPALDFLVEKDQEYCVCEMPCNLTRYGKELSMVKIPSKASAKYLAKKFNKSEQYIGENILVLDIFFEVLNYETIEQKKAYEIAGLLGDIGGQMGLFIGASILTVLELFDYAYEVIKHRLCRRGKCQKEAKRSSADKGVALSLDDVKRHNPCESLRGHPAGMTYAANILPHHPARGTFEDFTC
T1 sequence (O35240 1-533): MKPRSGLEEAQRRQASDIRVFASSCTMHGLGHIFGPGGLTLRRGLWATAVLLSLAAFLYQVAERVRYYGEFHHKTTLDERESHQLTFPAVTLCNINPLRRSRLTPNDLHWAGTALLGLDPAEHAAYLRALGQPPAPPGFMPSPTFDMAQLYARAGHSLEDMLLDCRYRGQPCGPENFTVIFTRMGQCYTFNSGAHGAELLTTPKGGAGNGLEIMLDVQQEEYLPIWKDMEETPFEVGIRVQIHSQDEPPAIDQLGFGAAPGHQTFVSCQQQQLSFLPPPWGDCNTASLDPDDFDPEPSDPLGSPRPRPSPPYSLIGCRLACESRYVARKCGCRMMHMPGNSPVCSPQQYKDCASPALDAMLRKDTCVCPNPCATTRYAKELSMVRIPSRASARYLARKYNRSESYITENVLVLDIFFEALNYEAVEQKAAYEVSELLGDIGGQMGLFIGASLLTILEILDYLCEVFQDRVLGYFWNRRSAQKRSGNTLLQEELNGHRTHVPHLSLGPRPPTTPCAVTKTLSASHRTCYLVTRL
The conditions noted are these: relative to ASIC3 / ASIC2b+3; cited from earlier work.

Another assay concerns the target T2, heteromer ASIC2a+3 (Rattus norvegicus, UniProt O35240+Q62962).
T2 sequence (Q62962 1-512): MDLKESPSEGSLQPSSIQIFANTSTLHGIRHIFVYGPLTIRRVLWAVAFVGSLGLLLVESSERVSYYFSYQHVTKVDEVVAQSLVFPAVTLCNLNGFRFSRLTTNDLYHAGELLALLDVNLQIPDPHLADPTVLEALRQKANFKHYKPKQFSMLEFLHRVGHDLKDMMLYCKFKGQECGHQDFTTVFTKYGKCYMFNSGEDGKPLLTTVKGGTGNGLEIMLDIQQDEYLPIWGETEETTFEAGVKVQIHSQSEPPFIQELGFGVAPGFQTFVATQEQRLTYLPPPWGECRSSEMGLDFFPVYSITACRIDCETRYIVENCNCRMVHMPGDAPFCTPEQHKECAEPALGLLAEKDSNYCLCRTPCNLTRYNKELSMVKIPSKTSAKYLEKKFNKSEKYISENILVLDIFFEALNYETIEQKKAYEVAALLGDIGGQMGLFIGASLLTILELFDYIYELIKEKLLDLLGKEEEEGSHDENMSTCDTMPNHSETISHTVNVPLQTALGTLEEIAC
T2 sequence (O35240 1-533): T1 sequence (O35240 1-533)
Particulars: cited from earlier work.

With “peptide of 42 amino acids (SEQ ID NO: 3), three disulphide bonds, from sea anemone Anthopleura elegantissima; blocks ASIC3 [APETx2]”, the “sensitivity of the native ASIC currents to the toxin” value in assay [1] was “partial sensitivity”. Further, the “affinity for the heteromer ASIC1a+3” value on heteromer ASIC1a+3 is reported as “less affinity”. Besides, on heteromer ASIC2a+3, the “effect on the heteromer ASIC2a+3” value is “does not have any effect”.
